In patent US20170190671A1, “BIS(ARYL)CATECHOL DERIVATIVES AS HERBICIDES” (E I DU PONT DE NEMOURS AND COMPANY, priority 2014, published 2017):

How the values were obtained:
[1] = tested on: Italian ryegrass (Lolium multiflorum); assay: Test C preemergence; type: in vivo; settings: Lolium multiflorum, pre-emergence, 336 h, scale 0 to 100, read-out: Plant response rating, Ryegrass, Italian
How it was run: (§1)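 Greenhouse test, preemergence on seeded soil or postemergence on 1- to 4-leaf plants. Response is a visual 0-100 rating versus controls, taken 13-15 days after treatment.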

[2] = tested on: barnyardgrass (Echinochloa crus-galli); assay: Test C preemergence; type: in vivo; settings: Echinochloa crus-galli, pre-emergence, read-out: Plant response rating, Barnyardgrass
How it was run: as §1

[3] = tested on: blackgrass (Alopecurus myosuroides); assay: Test C preemergence; type: in vivo; settings: Alopecurus myosuroides, pre-emergence, 336 h, scale 0 to 100, read-out: Plant response rating, Blackgrass
How it was run: as §1

corn (Zea mays) = assay: Test C preemergence; type: in vivo; settings: Zea mays, pre-emergence, 336 h, scale 0 to 100
How it was run: as §1

[4] = tested on: galium (catchweed bedstraw, Galium aparine); assay: Test C preemergence; type: in vivo; settings: Galium, pre-emergence, 336 h, scale 0 to 100, read-out: Plant response rating, Galium
How it was run: as §1

[5] = tested on: johnsongrass (Sorghum halepense); assay: Test C preemergence; type: in vivo; settings: Sorghum halepense, pre-emergence, 336 h, scale 0 to 100, read-out: Plant response rating, Johnsongrass
How it was run: as §1

[6] = tested on: lambsquarters (Chenopodium album); assay: Test C preemergence; type: in vivo; settings: Chenopodium album, pre-emergence, 336 h, scale 0 to 100, read-out: Plant response rating, Lambsquarters
How it was run: as §1

[7] = tested on: morningglory (Ipomoea coccinea); assay: Test C preemergence; type: in vivo; settings: Ipomoea, pre-emergence, 336 h, scale 0 to 100, read-out: Plant response rating, Morningglory
How it was run: as §1

[8] = tested on: pigweed (Amaranthus retroflexus); assay: Test C preemergence; type: in vivo; settings: Amaranthus retroflexus, pre-emergence, 336 h, scale 0 to 100, read-out: Plant response rating, Pigweed
How it was run: as §1

[9] = tested on: ragweed (common ragweed, Ambrosia elatior); assay: Test C preemergence; type: in vivo; settings: Ambrosia artemisiifolia, pre-emergence, 336 h, scale 0 to 100, read-out: Plant response rating, Ragweed
How it was run: as §1

soybean (Glycine max) = assay: Test C preemergence; type: in vivo; settings: Glycine max, pre-emergence, scale 0 to 100, read-out: Plant response rating, Soybean
How it was run: as §1

[10] = tested on: velvetleaf (Abutilon theophrasti); assay: Test C preemergence; type: in vivo; settings: Abutilon theophrasti, pre-emergence, scale 0 to 100, read-out: Plant response rating, Velvetleaf
How it was run: as §1

[11] = tested on: waterhemp (common waterhemp, Amaranthus rudis); assay: Test C preemergence; type: in vivo; settings: Amaranthus tuberculatus, pre-emergence, scale 0 to 100, read-out: Plant response rating, Waterhemp
How it was run: as §1

[12] = tested on: yellow nutsedge (Cyperus esculentus); assay: Test C preemergence; type: in vivo; settings: Cyperus, pre-emergence, 336 h, scale 0 to 100, read-out: Plant response rating, Nutsedge, Yellow
How it was run: as §1

Work on N#Cc1cccc(Oc2ncc(C(F)(F)F)cn2)c1Oc1ncc(Cl)cn1 [Compound 39, 2-[(5-chloro-2-pyrimidinyl)oxy]-3-[[5-(trifluoromethyl)-2-pyrimidinyl]oxy]-benzonitrile] yielded a pest or weed control at 31 g/ha ([1]; 31 g ai/ha, preemergence) of 20%, a pest or weed control at 62 g/ha ([1]; 62 g ai/ha, preemergence) of 75% and a pest or weed control at 125 g/ha ([1]; 125 g ai/ha, preemergence) of 90%. It also gave a pest or weed control at 16 g/ha ([1]; Preemergence, 16 g ai/ha) of 0%, a pest or weed control at 31 g/ha ([2]; 31 g ai/ha, preemergence, scale 0 to 100) of 95% and a pest or weed control at 62 g/ha ([2]; 62 g ai/ha, preemergence, scale 0 to 100) of 95%. The pest or weed control at 125 g/ha ([2]; 125 g ai/ha, preemergence, scale 0 to 100) was 100%, the pest or weed control at 16 g/ha ([2]; Preemergence, 16 g ai/ha, scale 0 to 100 (0 no effect, 100 complete control)) was 65% and the pest or weed control at 31 g/ha ([3]; 31 g ai/ha, preemergence) was 50%. For the same compound, the pest or weed control at 62 g/ha ([3]; 62 g ai/ha, preemergence) was 90%, the pest or weed control at 125 g/ha ([3]; 125 g ai/ha, preemergence) was 90% and the pest or weed control at 16 g/ha ([3]; Preemergence, 16 g ai/ha) was 0%. It also gave a Corn plant response rating (crop injury, 0 = no effect, 100 = complete kill) at 31 g/ha (corn (Zea mays); 31 g ai/ha, preemergence) of 40%, a Corn plant response rating (crop injury, 0 = no effect, 100 = complete kill) at 62 g/ha (corn (Zea mays); 62 g ai/ha, preemergence) of 45% and a Corn plant response rating (crop injury, 0 = no effect, 100 = complete kill) at 125 g/ha (corn (Zea mays); 125 g ai/ha, preemergence) of 85%. It also gave a Corn plant response rating (crop injury, 0 = no effect, 100 = complete kill) at 16 g/ha (corn (Zea mays); Preemergence, 16 g ai/ha) of 5%, a pest or weed control at 31 g/ha ([4]; 31 g ai/ha, preemergence) of 90% and a pest or weed control at 62 g/ha ([4]; 62 g ai/ha, preemergence) of 85%. The pest or weed control at 125 g/ha ([4]; 125 g ai/ha, preemergence) was 100%, the pest or weed control at 16 g/ha ([4]; Preemergence, 16 g ai/ha) was 85% and the pest or weed control at 31 g/ha ([5]; 31 g ai/ha, preemergence) was 65%. For the same compound, the pest or weed control at 62 g/ha ([5]; 62 g ai/ha, preemergence) was 85%, the pest or weed control at 125 g/ha ([5]; 125 g ai/ha, preemergence) was 100% and the pest or weed control at 16 g/ha ([5]; Preemergence, 16 g ai/ha) was 25%. For the same compound, the pest or weed control at 31 g/ha ([6]; 31 g ai/ha, preemergence) was 90%, the pest or weed control at 62 g/ha ([6]; 62 g ai/ha, preemergence) was 98% and the pest or weed control at 125 g/ha ([6]; 125 g ai/ha, preemergence) was 95%. For the same compound, the pest or weed control at 16 g/ha ([6]; Preemergence, 16 g ai/ha) was 60%, the pest or weed control at 31 g/ha ([7]; 31 g ai/ha, preemergence) was 80% and the pest or weed control at 62 g/ha ([7]; 62 g ai/ha, preemergence) was 98%. It also gave a pest or weed control at 125 g/ha ([7]; 125 g ai/ha, preemergence) of 100%, a pest or weed control at 16 g/ha ([7]; Preemergence, 16 g ai/ha) of 45% and a pest or weed control at 31 g/ha ([8]; 31 g ai/ha, preemergence) of 98%. The pest or weed control at 62 g/ha ([8]; 62 g ai/ha, preemergence) was 100%, the pest or weed control at 125 g/ha ([8]; 125 g ai/ha, preemergence) was 100% and the pest or weed control at 16 g/ha ([8]; Preemergence, 16 g ai/ha) was 100%. The pest or weed control at 31 g/ha ([9]; 31 g ai/ha, preemergence) was 40%, the pest or weed control at 62 g/ha ([9]; 62 g ai/ha, preemergence) was 65% and the pest or weed control at 125 g/ha ([9]; 125 g ai/ha, preemergence) was 85%. The pest or weed control at 16 g/ha ([9]; Preemergence, 16 g ai/ha) was 15%, the plant injury at 31 g/ha (soybean (Glycine max); 31 g ai/ha, preemergence) was 65% and the plant injury at 62 g/ha (soybean (Glycine max); 62 g ai/ha, preemergence) was 85%. For the same compound, the plant injury at 125 g/ha (soybean (Glycine max); 125 g ai/ha, preemergence) was 95%, the plant injury at 16 g/ha (soybean (Glycine max); Preemergence, 16 g ai/ha) was 35% and the pest or weed control at 31 g/ha ([10]; 31 g ai/ha, preemergence) was 75%. It also gave a pest or weed control at 62 g/ha ([10]; 62 g ai/ha, preemergence) of 100%, a pest or weed control at 125 g/ha ([10]; 125 g ai/ha, preemergence) of 100% and a pest or weed control at 16 g/ha ([10]; Preemergence, 16 g ai/ha) of 40%. For the same compound, the pest or weed control at 31 g/ha ([11]; 31 g ai/ha, preemergence) was 100%, the pest or weed control at 62 g/ha ([11]; 62 g ai/ha, preemergence) was 100% and the pest or weed control at 125 g/ha ([11]; 125 g ai/ha, preemergence) was 100%. For the same compound, the pest or weed control at 16 g/ha ([11]; Preemergence, 16 g ai/ha) was 100%, the pest or weed control at 31 g/ha ([12]; 31 g ai/ha, preemergence) was 20% and the pest or weed control at 62 g/ha ([12]; 62 g ai/ha, preemergence) was 85%. For the same compound, the pest or weed control at 125 g/ha ([12]; 125 g ai/ha, preemergence) was 85%, the pest or weed control at 16 g/ha ([12]; Preemergence, 16 g ai/ha) was 0% and the melting point was 109 to 112 °C.
